# Measurements: US20250073209A1, “COVALENT TARGETING OF RhoA FOR CANCER THERAPY” (The University of Hong Kong, priority 2023, published 2025)
# Tests used:
# Format in all cases: cell-based, human
# CRCs = experiment: MTT assay on CRC cells; details: 48 h
# Experimental: HCT116 cells was seeded at 2,500 cells/well; HT29, LOVO and SW620 cells were seeded at 4,000 cells/well; CCD-18Co cells were seeded at 10,000/well; and SW480 cells were seeded at 12,000 cells/well in 96 well plate in triplicates. Cells were treated with a concentration gradient of CL16 for 48 hours. Then, cells were incubated with 10% 3-(4,5-Dimethylthiazol-2-yl)-2,5-diphenyltetrazolium bromide (MTT) solution ([…]) in 37° C. for 4 hours. Cells were then lyzed in 10% SDS in […] HCl. Absorbance of individual well was measured at 570 nm. IC50 values were analyzed by nonlinear best-fit regression using Prism Graphpad 9.
# As discussed above, overexpression/hyperactivity of RhoA associated with poor prognosis and aggressive behaviors of CRCs (FIG. 8A). Thus, the anti-cancer and anti-metastatic properties of CL16 in CRCs were explored. First, it was confirmed that genetic knockdown of RhoA by siRNA slowed down colony formation and migration of CRCs by using staining (data not shown) and wound healing assay (FIG. 4A). MTT assay was used to determine cell viability of CRCs and normal colon fibroblast CCD-18Co cells treated with CL16 for 48 h (n=3 different biological replicates/group). A much lower expression level of RhoA in normal colon fibroblast CCD-18Co cells was also determined, as compared to CRCs, by western blotting (data not shown). […]
# [1] = tested on: HT29 cells with C16 Å knock-in; experiment: Wound healing assay on HT29 cells with RhoA C16A knock-in; details: 48 h
# Experimental: (§1) For wound healing assay, HT29 cells were seeded in 90% confluency, a wound was scratched using a P-20 tip the next day. Cell debris was washed with PBS then aspirated. Then, complete DMEM medium with CL16 or Rhosin with corresponding concentration was added to the cells. Wound closure was recorded every 24 hours under light microscope with 10× objective and measurement of wound area was made by ImageJ.
# HT29 cells with RhoA C16 Å knock-in were prepared by BrainVTA using the CRISPR-Cas9 technique. Briefly, HT29 cells were transfected with RhoA construct with mutated loci in CRISPR/Cas9 vector (U6-sa-sgRNA) using PEI. Cells were subsequently selected with 2 μg/mL puromycin and 800 μg/mL neomycin for 2 weeks. Monoclonal cells were then selected, propagated and subjected to Sanger sequencing to validate the homozygous C16 Å amino acid substitution ([…]) in RhoA gene.
# The effects of CL16 in HT29 cells expressing RhoA WT protein and HT29 cells with RhoA C16 Å knock-in by CRISPR-Cas9 were investigated, respectively, to validate the molecular mechanism of RhoA inhibition and anti-cancer properties from CL16. […] HT29 cells expressing RhoA WT or C16 Å protein were incubated with solvent vehicle, CL16 or Rhosin in complete medium for 24 h. The cells were then washed, lysed, subjected to rhotekin pull-down and immunoblotted. […]
# HCT116 cells = experiment: Flow cytometry cell cycle analysis; details: HCT116, 24 h
# Experimental: HCT116 cells were seeded onto 6-well plates (500,000 cells) and cultured overnight in complete medium at 37° C. with 5% CO2. After treatment with DMSO control or CL16 at the indicated concentration for 24 h, cells were harvested by trypsin digestion, washed with PBS, and fixed in 70% cold ethanol on ice for 30 minutes. The cells were then centrifuged at 250g for 5 min and resuspended in staining buffer (PBS with 0.05% Triton X-100) containing propidium iodide (50 μg/mL) and RNase (100 μg/mL) for 30 min at 37° C. in the dark. The cells were then filtered through a 40 μm strainer and analyzed by flow cytometry. Representative FACS plots were developed to illustrate the gating strategy in studying cell cycle. The NovoCyte Advanteon BVYG analyzer was used to acquire cell events, and the data were processed using NovoExpress software.
# The molecular mechanisms of anticancer effects from CL16 were investigated. […] Immunoblotting of cell cycle checkpoint proteins in HCT116 cells underwent CL16 treatment for 24 h.
# HT29 cells = experiment: Wound healing assay
# Experimental: as §1
# As discussed above, overexpression/hyperactivity of RhoA associated with poor prognosis and aggressive behaviors of CRCs (FIG. 8A). Thus, the anti-cancer and anti-metastatic properties of CL16 in CRCs were explored. First, it was confirmed that genetic knockdown of RhoA by siRNA slowed down colony formation and migration of CRCs by using staining (data not shown) and wound healing assay (FIG. 4A). MTT assay was used to determine cell viability of CRCs and normal colon fibroblast CCD-18Co cells treated with CL16 for 48 h (n=3 different biological replicates/group). A much lower expression level of RhoA in normal colon fibroblast CCD-18Co cells was also determined, as compared to CRCs, by western blotting (data not shown). […] HT29 cells were transfected with siRNA (5 μM) using Dharmafect1 for 48 hours, and protein expressions were then investigated by immunoblotting.
# [2] = tested on: phosphorylated MLC (downstream effector of RhoA); experiment: Western blotting of phosphorylated MLC, serum starvation-restimulation; details: HCT116, serum starvation-restimulation
# Experimental: Anti-RhoA (#2117), anti-GAPDH (#2118), anti-phosphoMLC (#3671), anti-MLC (#3672), anti-FLAG (#8146), anti-GFP (#2956), and anti-GST (#2624) were purchased from Cell Signaling Technology. Cells were washed with PBS and then harvested using cell lysis buffer (1% Triton X100, 10 mM beta glycerol phosphate, 10 mM sodium pyrophosphate, 40 mM HEPES, 4 mM EDTA, pH7.4) with 4% protease/phosphatase inhibitor cocktail (Pierce). Protein samples were quantified using BCA assays (Pierce), normalized and then boiled with 4× Laemmli sampling buffer in 95° C. for 5 mins. Samples were resolved in 10% polyacrylamide gel (Biorad) and then transferred onto PVDF membrane (Biorad) and blocked with blocking buffer (5% bovine serum albumin (BSA) in Tris-buffered saline with 0.1% Tween 20 (TBST)) for 1 h. Membrane was washed in TBST, followed by incubation with corresponding primary antibodies (diluted 1:1000 in 5% BSA/milk in TBST with 1% NaN3) overnight at 4° C. After washing thrice with TBST, the membrane was incubated with HRP-conjugated secondary antibodies (#7074 or 7076) for one hour at room temperature. The membrane was then incubated with LumiGlo reagent (Cell Signaling Technology) and chemiluminescence was captured using a Chemidoc (Biorad).
# The effects of CL16 on RhoA downstream signals in CRCs with serum starvation-restimulation were examined.
compound,measurement,setting,value
O=C(CCl)N1N=C(c2cc3ccccc3o2)CC1c1ccco1 (centres unmarked) [CL16],cytotoxicity (cell viability),CRCs,cytotoxicity effects
same,cell migration,[1],no inhibitory effects
same,G2 phase cell population,HCT116 cells,significant increase in G2 phase cell population
same,cell migration,HT29 cells,good efficacy in reducing HT29 cell migration and invasion
same,phosphorylation of MLC upon serum re-stimulation,[2],significantly eliminated the increases in phosphorylation of MLC
